Our source for the MIC and IC50 values is patent publication US20260035363A1, “COMPOUNDS AND METHODS OF USE THEREOF AS ANTIBACTERIAL AGENTS” (priority 2019, published 2026).

Converted amounts (≈) assume the structure as drawn. Where two headings read alike, the source gives them in different places.

The IC50 is the concentration at which inhibition is half-maximal.

Common to all, as to format: cell-based
The test system of assay [1] is Mycobacterium tuberculosis (Mtb-GFP; H37Rv pMSP12::GFP). Nature of the assay: microbe, parasite or virus in culture. The note with it: 168 h, pH 6.8, read-out: Mtb Glu MITC95, glucose carbon source, pH 6.8, 7-day growth, GFP fluorescence, lowest concentration inhibiting 95% of growth.
Assay [2] deals with mitochondrial protein synthesis in HepG2 cells. Nature of the assay: Mitochondrial protein synthesis assay (COX-I to SDH-A ratio, In Cell ELISA). Particulars: Homo sapiens, HepG2, 96 h, 4 days, ratio of COX-I to SDH-A levels, read-out: MPS IC50. Here is the method: Mitochondrial Protein Synthesis Assay
Inhibition of mitochondrial protein synthesis was assessed in HepG2 cells by comparing the levels of two subunits of oxidative phosphorylation enzyme complexes, subunit I of Complex IV (COX-I) and the 70 kDa subunit of Complex II (SDH-A). COX-I is mitochondrial DNA encoded and SDH-A is nuclear DNA encoded. HepG2 cells were seeded in 96-well collagen coated plates at 8,000 cells per well and exposed to 2-fold serial dilutions of compounds from 100 μM to 6.25 μM. Microtiter plates were incubated for approximately 5 replication cycles (4 days) prior to assessment of protein levels using a kit as described by the manufacturer (ab110217 MitoBiogenesis In Cell ELISA Kit, Abcam, Cambridge, MA). Inhibition of mitochondrial protein synthesis was expressed as a ratio of COX-1 to SDH-A levels.
(In an ELISA, binding on a coated surface is turned into a signal by an enzyme label.)

Assay [3] relates to Mycobacterium tuberculosis (Mtb-GFP; H37Rv pMSP12::GFP). Nature of the assay: microbe, parasite or virus in culture. The note with it: 168 h, pH 6.8, read-out: Mtb Cho MITC95, cholesterol carbon source, pH 6.8, 7-day growth, GFP fluorescence, lowest concentration inhibiting 95% of growth.

Take `CN1CC(Oc2ccc(-c3c(F)cc(C4=NO[C@@H](Cn5ccnn5)C4)cc3F)cc2)C1` [Example 34, 1-{[(5R)-3-{2,6-Difluoro-4′-[(1-methylazetidin-3-yl)oxy][1,1′-biphenyl]-4-yl}-4,5-dihydro-1,2-oxazol-5-yl]methyl}-1H-1,2,3-triazole]: the MIC in assay [1] and in assay [3] was 0.09 µM (≈ 0.0383 µg/mL) throughout. Besides, the half-inhibitory concentration (IC50) in assay [2] was 2.6 µM.
As for `CN1CC(C)(S(=O)(=O)c2ccc(-c3ccc(C4=NO[C@@H](C(N)=O)C4)cc3F)cc2)C1` [Example 56, (5R)-3-[4′-(1,3-Dimethylazetidine-3-sulfonyl)-2-fluoro[1,1′-biphenyl]-4-yl]-4,5-dihydro-1,2-oxazole-5-carboxamide], the results for the MIC in assay [1] and in assay [3] were 13 µM (≈ 5.61 µg/mL) and 6.25 µM (≈ 2.7 µg/mL), respectively. For the same compound, in assay [2], the IC50 is above 100 µM.
In the same order, the values of `O=C(NC[C@H]1CC(c2cc(F)c(C3(F)CCS(=O)(=O)CC3)c(F)c2)=NO1)OC1CC1` [Example 50, Cyclopropyl({(5R)-3-[3,5-difluoro-4-(4-fluoro-1,1-dioxo-1λ^6-thian-4-yl)phenyl]-4,5-dihydro-1,2-oxazol-5-yl}methyl)carbamate] are 3.12 µM (≈ 1.39 µg/mL), 3.12 µM (≈ 1.39 µg/mL) and above 100 µM.
The like results for `COC(=O)NC[C@H]1CC(c2cc(F)c(C3(F)CCS(=O)(=O)CC3)c(F)c2)=NO1` [Example 2, Methyl N-[[(5R)-3-[3,5-difluoro-4-(4-fluoro-1,1-dioxo-thian-4-yl)phenyl]-4,5-dihydroisoxazol-5-yl]methyl]carbamate] were, in that order, 1.6 µM (≈ 0.673 µg/mL), 1.6 µM (≈ 0.673 µg/mL) and above 100 µM.
The like results for `Fc1cc(C2=NO[C@@H](Cn3ccnn3)C2)ccc1-c1ccn2c(C3(F)CNC3)nnc2c1` [Example 52, 3-(3-Fluoroazetidin-3-yl)-7-(2-fluoro-4-{(5R)-5-[(1H-1,2,3-triazol-1-yl)methyl]-4,5-dihydro-1,2-oxazol-3-yl}phenyl)[1,2,4]triazolo [4.3-a]pyridine] were, in that order, 0.78 µM (≈ 0.34 µg/mL), 0.78 µM (≈ 0.34 µg/mL) and 27 µM.
In the case of `CN1CC(C)(S(=O)(=O)c2ccc(-c3ccc(C4=NO[C@@H](Cn5ccnn5)C4)c(F)c3F)cc2)C1` [Example 26, 1-({(5R)-3-[4′-(1,3-Dimethylazetidine-3-sulfonyl)-2,3-difluoro[1,1′-biphenyl]-4-yl]-4,5-dihydro-1,2-oxazol-5-yl}methyl)-1H-1,2,3-triazole], the MIC in assay [1] and in assay [3] was 0.39 µM (≈ 0.19 µg/mL) throughout. Further, the IC50 in assay [2] was 28 µM.
As to `COC(=O)NC[C@H]1CC(c2ccc(-c3ccc(S(=O)(=O)C4(C)CN(C)C4)cc3)c(F)c2)=NO1` [Example 14, Methyl N-[[(5R)-3-[4-[4-(1,3-dimethylazetidin-3-yl)sulfonylphenyl]-3-fluoro-phenyl]-4,5-dihydroisoxazol-5-yl]methyl]carbamate], the MIC in assay [1] and in assay [3] was 0.12 µM (≈ 0.0571 µg/mL) in each case. Besides, in assay [2], the concentration for half-maximal inhibition (IC50) was 42 µM.
In the case of `O=S1(=O)CCC(F)(c2c(F)cc(C3=NO[C@@H](CO)C3)cc2F)CC1` [Example 47, 4-{2,6-Difluoro-4-[(5R)-5-(hydroxymethyl)-4,5-dihydro-1,2-oxazol-3-yl]phenyl}-4-fluoro-1λ^6-thiane-1,1-dione], the MIC in assay [1] and in assay [3] was 6.25 µM (≈ 2.27 µg/mL) each time. In assay [2], the half-inhibitory concentration (IC50) was above 100 µM.
As for `CN1CC(C)(S(=O)(=O)c2ccc(-c3ccc(C4=NO[C@@H](CNC(=O)C56CC(C5)C6)C4)cc3F)cc2)C1` [Example 28, N-({(5R)-3-[4′-(1,3-Dimethylazetidine-3-sulfonyl)-2-fluoro[1,1′-biphenyl]-4-yl]-4,5-dihydro-1,2-oxazol-5-yl}methyl)bicyclo[1.1.1] pentane-1-carboxamide], the figures for the MIC in assay [1] and in assay [3] were 1.56 µM (≈ 0.798 µg/mL) and 0.78 µM (≈ 0.399 µg/mL), respectively. In addition, in assay [2], the IC50 was 62 µM.
In the same order, the values of `CN=S1(=O)CCC(F)(c2c(F)cc(C3=NO[C@@H](CNC(C)=O)C3)cc2F)CC1` (stereo partly drawn) [Example 29, N-{[(5R)-3-{3,5-Difluoro-4-[4-fluoro-1-(methylimino)-1-oxo-1λ^6-thian-4-yl]phenyl}-4,5-dihydro-1,2-oxazol-5-yl]methyl}acetamide] are 1.56 µM (≈ 0.651 µg/mL), 1.56 µM (≈ 0.651 µg/mL) and above 100 µM.
For `CN1CC(F)(C(F)(F)c2ccc(-c3ccc(C4=NO[C@@H](Cn5ccnn5)C4)cc3F)cc2)C1` [Example 15, (5R)-3-[4-[4-[Difluoro-(3-fluoro-1-methyl-azetidin-3-yl)methyl]phenyl]-3-fluoro-phenyl]-5-(triazol-1-ylmethyl)-4,5-dihydroisoxazole], the MIC in assay [1] worked out at 0.035 µM (≈ 0.0161 µg/mL); in assay [3] it was 0.055 µM (≈ 0.0253 µg/mL). In assay [2], the half-inhibitory concentration (IC50) was 4.3 µM.
In the same order, the values of `CN1CC(C)(S(=O)(=O)c2ccc(-c3c(F)cc(C4=NO[C@@H](Cn5ccnn5)C4)cc3F)cn2)C1` [Example 24, 5-(2,6-Difluoro-4-{(5R)-5-[(1H-1,2,3-triazol-1-yl)methyl]-4,5-dihydro-1,2-oxazol-3-yl}phenyl)-2-(1,3-dimethylazetidine-3-sulfonyl)pyridine] are 3.12 µM (≈ 1.52 µg/mL), 3.12 µM (≈ 1.52 µg/mL) and 76 µM.
